The text below walks through data of article PMC4638363, “Linear Interaction Energy Based Prediction of Cytochrome P450 1A2 Binding Affinities with Reliability Estimation” (PLoS ONE, 2015).

SMILES strings stand for the structures. Where two headings read alike, the source gives them in different places.

Series [1] concerns CYP 1A2. The conditions noted are these: literature; cited from earlier work.
Series [2] concerns CYP 1A2. Particulars: for ΔG bind (lit): from literature IC50, Source 2 (Ref. 58); for ΔGbind^Obs: training set, from literature IC50, Source 2.
In series [3] the test system is CYP 1A2. The conditions noted are these: cited from earlier work.
For series [4], the target named is T1, human CYP 1A2 (Homo sapiens, UniProt P05177).
T1 sequence (P05177 1-516): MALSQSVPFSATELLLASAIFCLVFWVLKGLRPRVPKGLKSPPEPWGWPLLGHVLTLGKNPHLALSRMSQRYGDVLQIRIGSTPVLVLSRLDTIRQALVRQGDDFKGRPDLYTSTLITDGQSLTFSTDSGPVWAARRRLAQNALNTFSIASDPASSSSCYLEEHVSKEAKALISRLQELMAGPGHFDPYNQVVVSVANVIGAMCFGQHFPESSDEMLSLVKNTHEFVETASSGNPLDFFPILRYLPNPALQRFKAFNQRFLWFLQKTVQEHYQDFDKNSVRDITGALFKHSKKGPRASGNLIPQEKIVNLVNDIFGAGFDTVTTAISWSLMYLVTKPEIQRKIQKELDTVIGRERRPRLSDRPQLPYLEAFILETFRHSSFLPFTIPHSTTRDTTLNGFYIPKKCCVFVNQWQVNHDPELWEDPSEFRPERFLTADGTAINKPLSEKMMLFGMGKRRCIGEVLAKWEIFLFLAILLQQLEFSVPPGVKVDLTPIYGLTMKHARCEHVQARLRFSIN
The conditions noted are these: for Residual (ΔGbind^Obs–ΔG bind ^Calc), error in prediction: test set.

Series [5] deals with CYP 1A2. Description: Source 1: Bayer HealthCare screen, phenacetin as substrate probe on pooled human liver microsomes. Particulars: for ΔGbind^Obs: from literature IC50, Source 1. In general terms: Microsomes from liver hold many membrane-bound enzymes, among them those of drug oxidation.
In series [6] the test system is CYP 1A2. Particulars: cited from earlier work. The source holds these as a separate data set.
Series [7] relates to recombinant CYP 1A2.
The subject of series [8] is recombinant CYP 1A2. The conditions noted are these: read-out: IC 50 (lit); Source 3, recombinant CYP 1A2, 7-ethoxyresorufin O-dealkylation; cited from earlier work.
Series [9] concerns the target T1, human CYP 1A2. The series is described as follows: in-house CYP 1A2 inhibition assay with 7-methoxyresorufin as substrate (resorufin fluorescence). The conditions noted are these: for ΔΔG bind: difference in ΔG bind between literature and in-house determined values; for ΔG bind (inhouse): from in-house IC50 via Cheng-Prusoff and RTln(Ki).
The mark [10] stands for this setting: read-out: IC 50 (lit), Source 2, recombinant CYPs, phenacetin O-deethylation.
[11] abbreviates: Table A, Source 1, ref Bayer HealthCare databases for CYP inhibition (eTOX).
The mark [12] stands for this setting: Table A, Source 2, ref Cohen et al., Drug Metab. Dispos. 2003.

On to `CCOc1ccc(NC(C)=O)cc1` [Compound 6, Phenacetin], for which, in the series on CYP 1A2 [1], the Reported inhibition mechanism entry is given as “Substrate^64”. Moreover, in the series with CYP 1A2 [2], the “ΔG bind (lit)” value was […] and the “ΔGbind^Obs” value is […]. Also, the IC50 with CYP 1A2 [3] (setting [10]) was […]. For the same molecule, the “Residual (ΔGbind^Obs—ΔGbind^Calc)” value on human CYP 1A2 [4] was […].
Take `Clc1ccccc1CN1CCc2sccc2C1` [Compound 8, Ticlopidine]: the Reported inhibition mechanism entry in the series with CYP 1A2 [1] was “Competitive^66”. For the same molecule, in the series on CYP 1A2 [2], the “ΔG bind (lit)” value is […]. Moreover, in the series on CYP 1A2 [3] (setting [10]), the IC50 was […].
In the case of `C[C@]12CC[C@@H]3c4cc(F)c(O)cc4CC[C@H]3[C@@H]1CC[C@@H]2O` [Compound 20, 2-Fluoroestradiol], in the series with CYP 1A2 [5] (test set), the “ΔGbind^Obs” value is -6.72 kcal/mol. For the same molecule, the IC50 with CYP 1A2 [6] (setting [11]) was 26.8 µM. Also, the “Residual (ΔGbind^Obs–ΔG bind ^Calc), error in prediction” value on human CYP 1A2 [4] is 1.67 kcal/mol.
Turning to `Cc1ccc(CCN)cc1` [Compound 12, p-tolylethylamine], in the series on recombinant CYP 1A2 [7] (from literature IC50, Source 3 (Ref. 25)), the “ΔG bind (lit)” value is -7.07 ± 0.12 kcal/mol. For the same molecule, the “ΔGbind^Obs” value in the series on recombinant CYP 1A2 [7] (test set, from literature IC50, Source 3) was -7.07 kcal/mol. Further, in the series with recombinant CYP 1A2 [8], the IC50 is 14 ± 2.5 µM. The “Residual (ΔGbind^Obs–ΔG bind ^Calc), error in prediction” value on human CYP 1A2 [4] was -1.53 kcal/mol. For the same molecule, on human CYP 1A2 [9], the ΔΔG bind was -1.27 kcal/mol and the “ΔG bind (inhouse)” value was -5.81 ± 0.17 kcal/mol. Besides, the IC50 on human CYP 1A2 [9] (read-out: IC 50 (inhouse), 7-methoxyresorufin at Km 2.5 μM, triplicate) came to 120 ± 33 µM.
With `O=c1cc(-c2ccccc2)oc2c1ccc1ccccc12` [Compound 7, alpha-Naphthoflavone], the Reported inhibition mechanism entry in the series with CYP 1A2 [1] is “Competitive/uncompetitive^65”. In addition, in the series with CYP 1A2 [2], the “ΔG bind (lit)” value is […] and the “ΔGbind^Obs” value is […]. Further, the IC50 in the series with CYP 1A2 [3] (setting [10]) is […].
Take `O=c1c(O)c(-c2ccc(O)c(O)c2)oc2cc(O)cc(O)c12` [Compound 14, Quercetin]: in the series on CYP 1A2 [5] (test set), the “ΔGbind^Obs” value was […]. In addition, the Reported inhibition mechanism entry with CYP 1A2 [1] was “Competitive^67”. The IC50 in the series with CYP 1A2 [6] (setting [11]) is […]. Further, the “Residual (ΔGbind^Obs–ΔG bind ^Calc), error in prediction” value at human CYP 1A2 [4] is […].
Regarding `O=C1C[C@@H](c2ccc(O)cc2)Oc2cc(O)cc(O)c21` [Compound 17, Naringenin], the “ΔGbind^Obs” value in the series with CYP 1A2 [5] (test set) is -7.17 kcal/mol. Also, the Reported inhibition mechanism result in the series on CYP 1A2 [1] is “Substrate^68”. In the series with CYP 1A2 [6] (setting [11]), the IC50 is 12.3 µM.
`Cc1c2ccncc2c(C)c2c1[nH]c1ccccc12` [Compound 5, Ellipticine]: the “ΔG bind (lit)” value with CYP 1A2 [2] was -9.99 ± 0.048 kcal/mol. Further, the IC50 in the series on CYP 1A2 [3] (setting [10]) was 0.11 ± 0.01 µM. Besides, at human CYP 1A2 [9], the IC50 was found to be 0.007 ± 0.002 µM, the ΔΔG bind is 1.65 kcal/mol and the “ΔG bind (inhouse)” value was -11.6 ± 0.17 kcal/mol.
With `Cc1cccc(C)c1OCC(C)N` (stereo not drawn) [Compound 23, Mexiletine], the Reported inhibition mechanism entry with CYP 1A2 [1] was “Competitive^70”. Also, the “ΔGbind^Obs” value in the series on CYP 1A2 [2] is -8.32 kcal/mol. Further, the IC50 in the series with CYP 1A2 [3] (setting [12]) was 1.84 µM. Besides, at human CYP 1A2 [4] (training set), the “Residual (ΔGbind^Obs—ΔGbind^Calc)” value is -1.86 kcal/mol.
On to `COc1ccccc1OCCNCC(O)COc1cccc2[nH]c3ccccc3c12` (stereo not drawn) [Compound 3, Carvedilol], for which, in the series with CYP 1A2 [5] (from literature IC50, Source 1 (Ref. 57)), the “ΔG bind (lit)” value was -7.6 kcal/mol. In the series on CYP 1A2 [1], the Reported inhibition mechanism entry is listed as “Substrate^62”. In addition, the IC50 in the series on CYP 1A2 [6] (setting [11]) is 5.1 µM. In addition, the IC50 in the series on CYP 1A2 [6] (read-out: IC 50 (lit), Source 1, pooled human liver microsomes, phenacetin probe) was 5.91 µM. Moreover, at human CYP 1A2 [9], the IC50 was found to be 5 ± 0.2 µM, the ΔΔG bind is 0.096 kcal/mol and the “ΔG bind (inhouse)” value was -7.7 ± 0.024 kcal/mol.
On to `Cc1nc2c([nH]1)c(=O)n(C)c(=O)n2Cc1ccco1` [Compound 24, Furafylline], for which the Reported inhibition mechanism result in the series with CYP 1A2 [1] is listed as “Mechanism-based^71”. In the series on CYP 1A2 [3] (setting [12]), the IC50 is […].
Take `O=C(O)c1cccnc1Nc1cccc(C(F)(F)F)c1` [Compound 16, Niflumic Acid]: the “ΔGbind^Obs” value in the series with CYP 1A2 [5] (training set) was -7.22 kcal/mol. Moreover, the IC50 with CYP 1A2 [6] (setting [11]) was 11.6 µM. Also, the “Residual (ΔGbind^Obs—ΔGbind^Calc)” value at human CYP 1A2 [4] (training set) is 0.693 kcal/mol.
With `CC(C)NCC(O)COc1cccc2ccccc12` (stereo not drawn) [Compound 25, Propranolol], the Reported inhibition mechanism entry with CYP 1A2 [1] is “Substrate^72”. In the series on CYP 1A2 [2], the “ΔGbind^Obs” value was -7.86 kcal/mol. In addition, the IC50 with CYP 1A2 [3] (setting [12]) was 3.84 µM. For the same molecule, on human CYP 1A2 [4] (training set), the “Residual (ΔGbind^Obs—ΔGbind^Calc)” value is -0.263 kcal/mol.
